Legend:
Type in all cases: functional
[1] = test system: HOP-62; assay: Cytotoxicity against human HOP62 cells assessed as cell growth at 0.1 uM after 1 to 11 days by MTT assay; details: read-out: Activity
[2] = test system: SF-268; assay: Cytotoxicity against human SF268 cells assessed as cell growth at 10 uM after 1 to 11 days by MTT assay; details: read-out: Activity
[3] = test system: DU-145; assay: Cytotoxicity against human DU145 cells assessed as cell growth at 1 uM after 1 to 11 days by MTT assay; details: read-out: Activity
[4] = test system: RXF 393; assay: Cytotoxicity against human […] cells assessed as cell growth at 100 uM after 1 to 11 days by MTT assay; details: read-out: Activity
[5] = test system: NCI-H522; assay: Cytotoxicity against human NCI-H522 cells after 1 to 11 days by MTT assay
[6] = test system: RXF 393; assay: Cytotoxicity against human […] cells assessed as cell growth at 1 mM after 1 to 11 days by MTT assay; details: read-out: Activity
[7] = test system: UACC-62; assay: Cytotoxicity against human UACC62 cells assessed as cell growth at 0.1 uM after 1 to 11 days by MTT assay; details: read-out: Activity
[8] = test system: NCI-H322M; assay: Cytotoxicity against human NCI-H322M cells assessed as cell growth at 1 mM after 1 to 11 days by MTT assay; details: read-out: Activity
[9] = test system: NCI-H460; assay: Cytotoxicity against human NCI-H460 cells assessed as cell growth at 10 uM after 1 to 11 days by MTT assay; details: read-out: Activity
[10] = test system: OVCAR-8; assay: Cytotoxicity against human OVCAR8 cells assessed as cell growth at 10 uM after 1 to 11 days by MTT assay; details: read-out: Activity
[11] = test system: OVCAR-5; assay: Cytotoxicity against human OVCAR5 cells assessed as cell growth at 10 uM after 1 to 11 days by MTT assay; details: read-out: Activity
[12] = test system: HT-29; assay: Cytotoxicity against human HT-29 cells assessed as cell growth at 10 uM after 1 to 11 days by MTT assay; details: read-out: Activity
[13] = test system: BT-549; assay: Cytotoxicity against human BT549 cells after 1 to 11 days by MTT assay
[14] = test system: HOP-92; assay: Cytotoxicity against human HOP92 cells after 1 to 11 days by MTT assay
[15] = test system: LOX IMVI; assay: Cytotoxicity against human LOXIMVI cells after 1 to 11 days by MTT assay
[16] = test system: UACC-62; assay: Cytotoxicity against human UACC62 cells assessed as cell growth at 10 uM after 1 to 11 days by MTT assay; details: read-out: Activity
[17] = test system: SR; assay: Cytotoxicity against human SR cells assessed as cell growth at 1 mM after 1 to 11 days by MTT assay; details: read-out: Activity
[18] = test system: RXF 393; assay: Cytotoxicity against human […] cells after 1 to 11 days by MTT assay
[19] = test system: MCF7; assay: Cytotoxicity against human MCF7 cells assessed as cell growth at 1 mM after 1 to 11 days by MTT assay; details: read-out: Activity
[20] = test system: K562; assay: Cytotoxicity against human K562 cells assessed as cell growth at 0.1 uM after 1 to 11 days by MTT assay; details: read-out: Activity
[21] = test system: NCI-H23; assay: Cytotoxicity against human NCI-H23 cells assessed as cell growth at 100 uM after 1 to 11 days by MTT assay; details: read-out: Activity
[22] = test system: SN12C; assay: Cytotoxicity against human SN12C cells assessed as cell growth at 0.1 uM after 1 to 11 days by MTT assay; details: read-out: Activity
[23] = test system: SK-MEL-28; assay: Cytotoxicity against human SK-MEL-28 cells after 1 to 11 days by MTT assay
[24] = test system: OVCAR-4; assay: Cytotoxicity against human OVCAR4 cells assessed as cell growth at 1 uM after 1 to 11 days by MTT assay; details: read-out: Activity
[25] = test system: NCI-H226; assay: Cytotoxicity against human NCI-H226 cells after 1 to 11 days by MTT assay
[26] = test system: OVCAR-8; assay: Cytotoxicity against human OVCAR8 cells assessed as cell growth at 1 mM after 1 to 11 days by MTT assay; details: read-out: Activity
[27] = test system: LOX IMVI; assay: Cytotoxicity against human LOXIMVI cells assessed as cell growth at 100 uM after 1 to 11 days by MTT assay; details: read-out: Activity
[28] = test system: 786-0; assay: Cytotoxicity against human 786-0 cells assessed as cell growth at 1 mM after 1 to 11 days by MTT assay; details: read-out: Activity
[29] = test system: SR; assay: Cytotoxicity against human SR cells after 1 to 11 days by MTT assay
[30] = test system: RPMI-8226; assay: Cytotoxicity against human RPMI8226 cells after 1 to 11 days by MTT assay
[31] = test system: RXF 393; assay: Cytotoxicity against human […] cells assessed as cell growth at 10 uM after 1 to 11 days by MTT assay; details: read-out: Activity
[32] = test system: HOP-62; assay: Cytotoxicity against human HOP62 cells assessed as cell growth at 1 uM after 1 to 11 days by MTT assay; details: read-out: Activity
[33] = test system: RXF 393; assay: Cytotoxicity against human […] cells assessed as cell growth at 0.1 uM after 1 to 11 days by MTT assay; details: read-out: Activity
[34] = test system: IGROV-1; assay: Cytotoxicity against human IGROV1 cells assessed as cell growth at 1 mM after 1 to 11 days by MTT assay; details: read-out: Activity
[35] = test system: SF-539; assay: Cytotoxicity against human SF539 cells assessed as cell growth at 1 uM after 1 to 11 days by MTT assay; details: read-out: Activity
[36] = test system: K562; assay: Cytotoxicity against human K562 cells assessed as cell growth at 10 uM after 1 to 11 days by MTT assay; details: read-out: Activity
[37] = test system: UACC-257; assay: Cytotoxicity against human UACC257 cells assessed as cell growth at 10 uM after 1 to 11 days by MTT assay; details: read-out: Activity
[38] = test system: OVCAR-4; assay: Cytotoxicity against human OVCAR4 cells assessed as cell growth at 100 uM after 1 to 11 days by MTT assay; details: read-out: Activity
[39] = test system: Malme-3M; assay: Cytotoxicity against human MALME-3M cells assessed as cell growth at 10 uM after 1 to 11 days by MTT assay; details: read-out: Activity
[40] = test system: M14; assay: Cytotoxicity against human M14 cells assessed as cell growth at 0.1 uM after 1 to 11 days by MTT assay; details: read-out: Activity
[41] = test system: IGROV-1; assay: Cytotoxicity against human IGROV1 cells assessed as cell growth at 1 uM after 1 to 11 days by MTT assay; details: read-out: Activity
[42] = test system: SK-OV-3; assay: Cytotoxicity against human SKOV3 cells assessed as cell growth at 0.1 uM after 1 to 11 days by MTT assay; details: read-out: Activity
[43] = test system: SNB-75; assay: Cytotoxicity against human SNB75 cells assessed as cell growth at 100 uM after 1 to 11 days by MTT assay; details: read-out: Activity
[44] = read-out: LC50 (the source's name)

Structure (SMILES): O=C1Nc2ncccc2/C1=C1/Nc2ccccc2/C1=N\O
- growth at 0.1 µM [1]: 102%
- growth at 10 µM [2]: 91%
- growth at 1 µM [3]: 102%
- growth at 100 µM [4]: -9%
- GI50 [5]: > 100 µM
- TGI [5]: > 100 µM
- CC50 [5, 44]: > 100 µM
- growth at 1000 µM [6]: 7%
- growth at 0.1 µM [7]: 94%
- growth at 1000 µM [8]: 12%
- growth at 10 µM [9]: 97%
- growth at 10 µM [10]: 84%
- growth at 10 µM [11]: 94%
- growth at 10 µM [12]: 99%
- GI50 [13]: 5.41 µM
- TGI [13]: > 100 µM
- CC50 [13, 44]: > 100 µM
- GI50 [14]: 2.97 µM
- TGI [14]: > 100 µM
- CC50 [14, 44]: > 100 µM
- GI50 [15]: 5.17 µM
- TGI [15]: > 100 µM
- CC50 [15, 44]: > 100 µM
- growth at 10 µM [16]: 77%
- growth at 1000 µM [17]: 26%
- GI50 [18]: 1.22 µM
- TGI [18]: > 100 µM
- CC50 [18, 44]: > 100 µM
- growth at 1000 µM [19]: 41%
- growth at 0.1 µM [20]: 88%
- growth at 100 µM [21]: 55%
- growth at 0.1 µM [22]: 93%
- GI50 [23]: 32.8 µM
- TGI [23]: > 100 µM
- CC50 [23, 44]: > 100 µM
- growth at 1 µM [24]: 97%
- GI50 [25]: 1.14 µM
- TGI [25]: > 100 µM
- CC50 [25, 44]: > 100 µM
- growth at 1000 µM [26]: 52%
- growth at 100 µM [27]: 36%
- growth at 1000 µM [28]: 39%
- GI50 [29]: 6.65 µM
- TGI [29]: > 100 µM
- CC50 [29, 44]: > 100 µM
- GI50 [30]: 1.89 µM
- TGI [30]: 62.5 µM
- CC50 [30, 44]: > 100 µM
- growth at 10 µM [31]: 55%
- growth at 1 µM [32]: 100%
- growth at 0.1 µM [33]: 93%
- growth at 1000 µM [34]: 12%
- growth at 1 µM [35]: 91%
- growth at 10 µM [36]: 66%
- growth at 10 µM [37]: 114%
- growth at 100 µM [38]: 48%
- growth at 10 µM [39]: 91%
- growth at 0.1 µM [40]: 95%
- growth at 1 µM [41]: 84%
- growth at 0.1 µM [42]: 100%
- growth at 100 µM [43]: 14%

Reference: ChEMBL document CHEMBL1154822, “Synthesis and antiproliferative activity of 7-azaindirubin-3'-oxime, a 7-aza isostere of the natural indirubin pharmacophore” (J Nat Prod, 2009)
